The values below come from patent publication US20230131899A1, “INHIBITORS OF MICROBIALLY INDUCED AMYLOID” (Axial Therapeutics, Inc., priority 2020, published 2023).

Like-named read-outs stand apart in the source and are kept apart here.

One test deals with T1, E. coli CsgA (Escherichia coli, UniProt P28307).
T1 construct: made in house; host or cells: E. coli NEB 3016 slyD::kan, pET11d
Briefly: In vitro ThioflavinT assay of CsgA aggregation (CsgA ThT Assay). The class given is biochemical. The note with it: 1005 minutes; for CsgA ThT Assay (10 μM CsgA) % Control AUC at 1005 minutes, 25 μM (activity range) / remaining activity at 25 µM / CsgA ThT Assay (10 μM CsgA) % Control AUC at 1005 minutes, 25 μM: compound 25 μM; for remaining activity at 100 µM / CsgA ThT Assay (10 μM CsgA) % Control AUC at 1005 minutes, 100 μM / CsgA ThT Assay (10 μM CsgA) % Control AUC at 1005 minutes, 100 μM (activity range): compound 100 μM; for CsgA ThT Assay (10 μM CsgA) % Control AUC at 1005 minutes, 100 μM / CsgA ThT Assay (10 μM CsgA) % Control AUC at 1005 minutes, 25 μM: mean AUC as % of DMSO control. On the procedure: In vitro ThioflavinT assay to determine effects of compounds on CsgA aggregation. To assess the effects of compounds on aggregation of E. coli CsgA, a cell-free assay was performed using purified CsgA and Thioflavin T. In the assay, histidine-tagged CsgA was over-expressed in E. coli NEB 3016 slyD::kan cells harboring a pET11d vector containing a C-terminal 6× His tag. Following growth in rich media, CsgA production is induced at an OD600 of approximately 1.0 by addition of 0.5 mM IPTG (isopropyl beta-D-1-thiogalactopyranoside) followed by incubation at 37° C. for 1-4 hours with shaking at 200-250 rpm. Bacteria were resuspended in 8 M guanidine hydrochloride in 50 mM potassium phosphate buffer, pH 7.3 and lysed by sonication on ice using three 20 second intervals. The resulting lysate was incubated on a platform rocker for 1 hour at room temperature. After centrifugation at 10,000×g for 20 minutes, the supernatant was further sonicated on ice for three 20 second intervals and then incubated with nickel-nitrilotriacetic acid resin (Sigma) at room temperature for 1 hour in a 50 mL conical tube on a platform rocker. The resin was washed and pelleted 5 times with 45 mL 8 M guanidine in 50 mM potassium phosphate buffer pH 7.3. The resin was further washed and pelleted two times with 8 M guanidine hydrochloride in 50 mM potassium phosphate buffer pH 7.3 containing 12.5 mM imidazole. Purified CsgA protein was eluted two times with 5 mL of 6-8 M guanidine hydrochloride in 50 mM potassium phosphate buffer, pH 7.3 containing 250 mM imidazole. The eluted protein was aliquoted with 150 μL per aliquot, snap frozen in liquid nitrogen, and stored at −80 C. In order to obtain monomeric CsgA, the purified CsgA protein was thawed and passed through two pre-chilled desalting columns (Zeba) to remove imidazole and guanidine. The buffer exchanged protein was loaded onto a 30-kDa centrifugal filter unit (Amicon) and spun for 30 minutes at 7500×g to remove dimers and other oligomers. Protein concentration was assessed by the NanoDrop technique (Thermo Scientific), as is familiar to one skilled in the art. The CsgA aggregation assay was conducted in 96-well black non-binding surface or white untreated microplates with 20-40 μM ThioflavinT, 50 mM potassium phosphate buffer pH 7.3, 1% DMSO, CsgA at 2-20 μM, and compounds at 3.125-200 uM. The vehicle control wells contain all components of the assay except test compounds and represent the level of CsgA aggregation in the absence of any inhibitor or accelerator. Plates were incubated at room temperature in a Tecan Nano F200 plate reader with excitation at 438 nm using a 439 nm filter with a bandwidth of 8 nm, and emission at 495 nm with a 490 nm filter with a bandwidth of 10 nm, or in a SpectraMax M5, SpectraMax M2 or SpectraMax® i3X (Molecular Devices, San Jose, Calif.) spectrophotometer with excitation at 438 nm and emission at 495 nm. During the assay, plates were shaken initially for 5 seconds and subsequently for 3 seconds prior to fluorescent readings. Readings were performed every 15 minutes for up to 1005 minutes. The effect of compounds on CsgA aggregation in the assay was determined with data from 0-17 hours. Fluorescence values for each compound with CsgA were first adjusted by subtracting the average fluorescence of the compound in the absence of CsgA or in the presence of CsgA and compound at time 0 or 15 minutes. The data were analyzed in several ways:
1. The adjusted ThT fluorescence values were normalized by dividing them by the average fluorescence in the vehicle control wells containing CsgA. The median normalized fluorescence from 6-6.5 hours or 8-9 hours with the compound was expressed as a percentage of the median fluorescence observed in vehicle controls over the same time period. Percent inhibition of CsgA aggregation by a compound was determined by subtracting the percent average fluorescence with the compound relative to the vehicle controls from 100%. […]

Test [1] concerns CsgA gene expression (csgBAC promoter-GFP reporter) in E. coli UTI89. Briefly: In vitro live cell fluorescent reporter assay of CsgA transcription (Reporter Assay). The test is classed as cell-based. On the procedure:
In vitro live cell fluorescent reporter assay to determine effects of compounds on CsgA transcription. To assess the impact of compounds on CsgA gene expression, a live cell assay was performed using an engineered strain of E. coli UTI89 with a fluorescent CsgA gene expression reporter driven by the csgBAC promoter. In the reporter strain, a gene encoding Green Fluorescent Protein (GFP) was placed immediately downstream of the full intergenic region between csgDEF and csgBAC, containing the csgBAC promoter and other transcriptional regulatory elements, and inserted in single copy into the E. coli UTI89 chromosome, as described in Cegelski et. al., “Small-molecule inhibitors target Escherichia coli amyloid biogenesis and biofilm formation,” Nat. Chem. Bio., 25 Oct. 2009. With this construct, GFP expression in the reporter strain was under the same regulation as CsgA expression. The reporter strain was struck out on a YESCA agar plate (1 g/L yeast extract, 10 g/L casamino acids, 20 g/L Bacto Agar) and grown at about 27° C. for 2 days, or until single colonies were sufficiently large to pick. A single colony of the reporter strain was used to inoculate 5 mL of YESCA broth (1 g/L yeast extract, 10 g/L casamino acids), which was grown overnight at about 27° C. The inoculum was diluted 1:10 in YESCA broth and the optical density at 600 nm (OD600) was measured on a SpectraMax M2 or M5e (Molecular Devices, San Jose, Calif.) spectrophotometer in cuvettes. The culture was then further diluted to achieve a final OD600 of 0.003, which was confirmed by measurement of the OD600. Compounds were diluted in dimethyl sulfoxide (DMSO) and plated on black clear-bottomed tissue culture-treated 96-well plates with 1.5 μL/well for final test concentrations from 0.14-100 μM. All assay wells, including vehicle controls and positive controls for inhibition, included 1% DMSO final. Vehicle control wells consisted of DMSO and the reporter strain to assess the expression of the reporter strain in the assay in the absence of any compound. […] 148.5 μL culture at OD600 0.003 in YESCA broth was added to all wells for 150 μL final volume. Plates were incubated at 27° C. for 20 hours, then GFP fluorescence signal for each well was read on a Spectramax M2 or M5e plate reader with excitation at 485 nm, emission at 525 nm, and a cutoff at 515 nm. OD600 for each well was also measured on the Spectramax M2 or M5e plate reader. […] Background fluorescence was subtracted from all wells, then fluorescence signal for each well was normalized to the mean of the vehicle control wells. Normalized dose response curves were plotted for each compound, and compound inhibition of CsgA transcription was determined by assessing the curve-fit IC50, bottom, top, span (top-bottom), and Hill slope using GraphPad Prism software version 8.1.1 (GraphPad Software, San Diego, Calif.). An additional metric used to evaluate compounds was the concentration at which the curve reached 50% of the expression level of the vehicle control. This was written as a custom analysis in GraphPad Prism according to the formula X[50], or the X value at which Y=50, ie, the compound concentration at which fluorescence of the reporter strain was calculated to reach 50% of the vehicle control fluorescence. Separately from the fluorescence data, OD600 values were normalized to the mean of the vehicle control wells, and dose response curves were plotted for each compound. OD600 reduction of greater than 10% indicated compounds had some toxicity or negative impact on bacterial growth. […]
On the technique in general: In a reporter assay the amount or activity of a reporter protein is the signal.

Setting [2] is: CsgA 10 μM, black plates, class symbol.
[3] abbreviates: read-out: CsgA ThT Assay (10 μM CsgA) % Control AUC at 1005 minutes, 25 μM, mean AUC as % of DMSO control, CsgA 10 μM, black plates.
Where [4] appears, read: read-out: CsgA ThT Assay (10 μM CsgA) % Control AUC at 1005 minutes, 100 μM (activity range), CsgA 10 μM, black plates, class symbol.
The mark [5] stands for this setting: read-out: CsgA ThT Assay (10 μM CsgA) % Control AUC at 1005 minutes, 100 μM, mean AUC as % of DMSO control, CsgA 10 μM, black plates.
Where [6] appears, read: Escherichia coli, read-out: Reporter Assay Abs IC50 (activity range), median Abs IC50 in the CsgA reporter assay, class symbol.
[7] abbreviates: Escherichia coli, read-out: Reporter Assay Abs IC50 (μM), median Abs IC50 in the CsgA reporter assay, N/A = maximum expression reduction is <50% of control.
Setting [8] is: read-out: CsgA ThT Assay (10 μM CsgA) % Control AUC at 1005 minutes, 25 μM (activity range), CsgA 10 μM, black plates, class symbol.
[9] abbreviates: read-out: Reporter Assay Abs IC50 (activity range), median Abs IC50 in the CsgA reporter assay, class symbol.
Where [10] appears, read: read-out: Reporter Assay Abs IC50, median Abs IC50 in the CsgA reporter assay, N/A = maximum expression reduction is <50% of control.

T1 sequence (P28307 23-151): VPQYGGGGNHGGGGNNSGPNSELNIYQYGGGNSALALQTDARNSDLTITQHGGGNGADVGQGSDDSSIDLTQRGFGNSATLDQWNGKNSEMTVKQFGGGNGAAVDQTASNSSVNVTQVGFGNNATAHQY

With `CCCN1CC(C(=O)O)n2c(c(-c3cccc(C(F)(F)F)c3)c(Cc3cccc4ccccc34)cc2=O)S1(=O)=O` (single isomer, unassigned) [Compound 016a, 8-(naphthalen-1-ylmethyl)-6-oxo-2-propyl-9-(3-(trifluoromethyl)phenyl)-3,4-dihydro-2H,6H-pyrido[1,2-e][1,2,5]thiadiazine-4-carboxylic acid 1,1-dioxide], the “CsgA ThT Assay (10 μM CsgA) % Control AUC at 1005 minutes, 25 μM (activity range)” value at E. coli CsgA (setting [2]) is “(+++) (% control AUC of 11 to 31%)”. The remaining activity at 25 µM at E. coli CsgA (setting [3]) is 21%. Also, the remaining activity at 100 µM on E. coli CsgA (setting [4]) is 11 to 31%; on E. coli CsgA (setting [5]), 14%. In addition, the IC50 (in general, the concentration that inhibits the measured activity by half) in test [1] (setting [6]) is 4.6 to 10 µM; in test [1] (setting [7]), 8.3 µM.

Regarding `Nc1c(Cc2cccc3ccccc23)c(-c2cccc(C(F)(F)F)c2)c2n(c1=O)C(C(=O)O)CS2` (single isomer, unassigned) [Compound 020a, 6-amino-7-(naphthalen-1-ylmethyl)-5-oxo-8-(3-(trifluoromethyl)phenyl)-2,3-dihydro-5H-thiazolo[3,2-a]pyridine-3-carboxylic acid], the results for the remaining activity at 25 µM at E. coli CsgA (setting [8]) and on E. coli CsgA (setting [3]) were 11 to 31% and 27%, respectively. For the same compound, the remaining activity at 100 µM was 11 to 31% at E. coli CsgA (setting [4]) and 20% at E. coli CsgA (setting [5]). For the same compound, the IC50 in test [1] (setting [7]) is 4.4 µM; in test [1] (setting [9]), 1.3 to 4.5 µM.

Regarding `CCCCN1CC(C(=O)O)n2c(c(-c3cccc(C(F)(F)F)c3)c(Cc3cccc4ccccc34)cc2=O)S1(=O)=O` (single isomer, unassigned) [Compound 021a, 2-butyl-8-(naphthalen-1-ylmethyl)-6-oxo-9-(3-(trifluoromethyl)phenyl)-3,4-dihydro-2H,6H-pyrido[1,2-e][1,2,5]thiadiazine-4-carboxylic acid 1,1-dioxide], the “CsgA ThT Assay (10 μM CsgA) % Control AUC at 1005 minutes, 100 μM” value on E. coli CsgA (CsgA 10 μM, black plates) is 73%. Also, the remaining activity at 25 µM at E. coli CsgA (setting [8]) was 31 to 60%; on E. coli CsgA (setting [3]), 36%. Further, the remaining activity at 100 µM at E. coli CsgA (setting [4]) is greater than 60%. In addition, the half-maximal inhibitory concentration (IC50) in test [1] (setting [6]) was 1.3 to 4.5 µM; in test [1] (setting [7]), 3.3 µM.

As for `CCCCN1CC(C(=O)O)n2c(c(-c3cccc(C(F)(F)F)c3)c(Cc3cccc4ccccc34)cc2=O)S1(=O)=O` (single isomer, unassigned) [Compound 021b, 2-butyl-8-(naphthalen-1-ylmethyl)-6-oxo-9-(3-(trifluoromethyl)phenyl)-3,4-dihydro-2H,6H-pyrido[1,2-e][1,2,5]thiadiazine-4-carboxylic acid 1,1-dioxide], at E. coli CsgA (setting [2]), the “CsgA ThT Assay (10 μM CsgA) % Control AUC at 1005 minutes, 25 μM (activity range)” value was “(++) (% control AUC of 31 to 60%)” and the “CsgA ThT Assay (10 μM CsgA) % Control AUC at 1005 minutes, 100 μM (activity range)” value is listed as “(+) (% control AUC of greater than 60%)”. At E. coli CsgA (CsgA 10 μM, black plates), the “CsgA ThT Assay (10 μM CsgA) % Control AUC at 1005 minutes, 25 μM” value was determined as 36% and the “CsgA ThT Assay (10 μM CsgA) % Control AUC at 1005 minutes, 100 μM” value was 99%. In test [1] (setting [9]), the IC50 was 1.3 to 4.5 µM. For the same compound, the concentration for half-maximal inhibition (IC50) in test [1] (setting [10]) stood at 2.1 µM.

In the case of `CCCCCN1CC(C(=O)O)n2c(c(-c3cccc(C(F)(F)F)c3)c(Cc3cccc4ccccc34)cc2=O)S1(=O)=O` (single isomer, unassigned) [Compound 025b, 8-(naphthalen-1-ylmethyl)-6-oxo-2-pentyl-9-(3-(trifluoromethyl)phenyl)-3,4-dihydro-2H,6H-pyrido[1,2-e][1,2,5]thiadiazine-4-carboxylic acid 1,1-dioxide], on E. coli CsgA (setting [2]), the “CsgA ThT Assay (10 μM CsgA) % Control AUC at 1005 minutes, 25 μM (activity range)” value was “(++) (% control AUC of 31 to 60%)” and the “CsgA ThT Assay (10 μM CsgA) % Control AUC at 1005 minutes, 100 μM (activity range)” value is recorded as “(+) (% control AUC of greater than 60%)”. Further, on E. coli CsgA (CsgA 10 μM, black plates), the “CsgA ThT Assay (10 μM CsgA) % Control AUC at 1005 minutes, 25 μM” value amounted to 46% and the “CsgA ThT Assay (10 μM CsgA) % Control AUC at 1005 minutes, 100 μM” value was found to be 107%. For the same compound, in test [1] (setting [9]), the IC50 lay in the range of 1.3 to 4.5 µM. For the same compound, the IC50 in test [1] (setting [10]) turned out to be 2.4 µM.
